Results published in patent publication US10813931B2, “Methods and compositions relating to the treatment of cancer” (THE BRIGHAM AND WOMEN'S HOSPITAL, INC., priority 2013, dated 2020).

Legend:
[1] = tested on: MDA-MB-468 (468) cell line; test: CD44/CD24 surface expression by FACS in 468 cells; format: cell-based, human
Procedure: (§1) MDA-MB-231, MDA-MB-468 were purchased from ATCC. For acute treatments, cells were plated at a density of 0.5-1×10^5 cells/ml and allowed to adhere for 24-48 hr. when cells reached ˜70% confluency they were treated with antitubulins at indicated concentrations for 4-24 hours and utilized for subsequent assays. To generate chemotherapy tolerant subset, cells were treated with indicated concentrations of chemotherapy (48). Following washes with PBS, adherent cells were trypsinized and re-plated at a density of 1.5-2×10^5 cells/ml and cultured in serum-containing medium. […]
(§2) Cells were cultured as indicated and fixed with 4% paraformaldehyde in PBS for 30 min at RT and blocked in 10% goat serum (v/v). Following PBS washes, cells were incubated with indicated antibodies for 60 minutes at room temperature or overnight at 4 C and analyzed by FACS (Accuri cyomteters Inc. Ann Arbor, Mich.). Cell cycle analyzed in propidium iodide solution following incubation in 70% Ethanol overnight at 4 C and following manufacturer protocol (Genscript USA Inc. Piscataway, N.J.). AnnexinV/PI was analyzed FACS following manufacturer protocol (BD, Ann Arbor Mich.). All FACS results were analyzed by FlowJo™ software following a rigorous doublet discrimination based on FSC:A vs. width as well as FSC:A vs. height (Tree Star Inc., Ashland Oreg.). […]

MDA-MB-231 (231) = test: CD44 surface expression by FACS in 231 cells; format: cell-based, human; details: 4 hours post treatment, increasing doses
Procedure: as §1, §2

[2] = tested on: 4T-1 mouse mammary carcinoma; test: 4T-1 tumor growth in Balb/C mice; format: in vivo
Procedure: 4-6 week old Balb/C mice (Charles River, Cambridge Mass.) were inoculated with 10^6 4 T-1 mouse mammary carcinoma cells in the left flank (Charles River, Cambridge Mass.). Mice identified with tumors were treated with docetaxel (DTX) or vehicle twice at 72 hour intervals at 10 mg/kg i.v. or 15 mg/kg i.p. and subsequently treated with dasatinib i.p. or nanoparticles i.v. 72 hours following the final DTX dose. Tumors were harvested at indicated time points and evaluated for protein phosphorylation and expression. Experimental detail provided in supplemental data.
1 million 4T-1 mouse mammary carcinoma cells suspended in 100 µL PBS were injected per left flank of 5-6 week old Balb/C (Charles River, Wilmington Mass.). DTX was dissolved in pure Ethanol at a concentration of 50 mg/ml mixed 1:1 with Polysorbate 80 (Tween 80) and brought to a final working concentration with 5% glucose in PBS. Once Tumors became palpable (˜100 mm^3), DTX or vehicle treatments were administered at 100 μL volumes. Dasatinib was dissolved in DMSO to working concentration and delivered as 50 μL injections on indicated days, 50 µL DMSO used as a control in these studies. Tumor volumes were measured by a third party unaware of treatment conditions using digital calipers (Starlett, Athol, Mass.), volumes were assessed by the following formula: (Width×Width×length)/2 and expressed as relative volume increase from day 1. Tumor homogenate was prepared by homogenization of equal weight tissue sections incubated in 3×RIPA buffer containing 2× protease/phosphatase inhibitor cocktail (Thermo Fisher, Waltham, Mass.).

## CC(=O)O[C@@]12CO[C@@H]1C[C@H](O)[C@@]1(C)C(=O)[C@H](O)C3=C(C)[C@@H](OC(=O)[C@H](O)[C@@H](NC(=O)OC(C)(C)C)c4ccccc4)C[C@@](O)([C@@H](OC(=O)c4ccccc4)[C@H]21)C3(C)C [DTX, docetaxel]
[1]; 10 nM docetaxel, 24 h
  CD44/CD24 signature: induced a CD44^HI, CD24^+/HI signature
[1]; 24 hour incubation, 10 nM DTX
  CD44 surface expression: induction of CD44 was observed
MDA-MB-231 (231)
  CD44 induction: dose-dependent manner
[2]; DTX days 2 and 5, day 19
  tumor re-emergence after treatment: re-emerged robustly by day 19
[2]; DTX days 2 and 5 at 10 mg/kg i.v. and 15 mg/kg i.p., vs vehicle
  tumor growth (relative tumor volume): inhibited tumor growth
